One data set relates to L-1210 leukemia. Briefly: L-1210 Life Prolongation Assay. The format is in vivo, mice. The source says:
L-1210 Life Prolongation Assay^a
^a Intraperitoneal transplants.
^b Q04DX02 = ip injection on days 1 and 5.
Q04HX02 = iv drug dosing on hours 1 and 5.
^c % TC = (median survival time of treated/control animals) ×
^d log of initial tumor cell population minus log of tumor cell
population at the end of treatment. […]

Data set [1] can be described thus: Toxicity by weight loss in test animals (Protocol 4; toxic = weight loss of ≥4.0 grams); toxic dose. The format is in vivo, mice. An excerpt:
By "non-toxic", as used herein with reference to the ester compounds of the present invention, is meant a compound which is not toxic according to Protocal 4, section 4.301(b)(3) where toxicity is defined as a weight loss of ≥4.0 grams as reported in R. I. Geran, N. H. Greenberg, M. M. MacDonald, A. M. Schumacher and B. J. Abbott, Cancer Chemotherapy Reports, Part 3, Vol. 3, No. 2, September 1972.

The next data set has as its target T1, topoisomerase I (Bos taurus, UniProt F1MN93).
T1 sequence (F1MN93 1-767): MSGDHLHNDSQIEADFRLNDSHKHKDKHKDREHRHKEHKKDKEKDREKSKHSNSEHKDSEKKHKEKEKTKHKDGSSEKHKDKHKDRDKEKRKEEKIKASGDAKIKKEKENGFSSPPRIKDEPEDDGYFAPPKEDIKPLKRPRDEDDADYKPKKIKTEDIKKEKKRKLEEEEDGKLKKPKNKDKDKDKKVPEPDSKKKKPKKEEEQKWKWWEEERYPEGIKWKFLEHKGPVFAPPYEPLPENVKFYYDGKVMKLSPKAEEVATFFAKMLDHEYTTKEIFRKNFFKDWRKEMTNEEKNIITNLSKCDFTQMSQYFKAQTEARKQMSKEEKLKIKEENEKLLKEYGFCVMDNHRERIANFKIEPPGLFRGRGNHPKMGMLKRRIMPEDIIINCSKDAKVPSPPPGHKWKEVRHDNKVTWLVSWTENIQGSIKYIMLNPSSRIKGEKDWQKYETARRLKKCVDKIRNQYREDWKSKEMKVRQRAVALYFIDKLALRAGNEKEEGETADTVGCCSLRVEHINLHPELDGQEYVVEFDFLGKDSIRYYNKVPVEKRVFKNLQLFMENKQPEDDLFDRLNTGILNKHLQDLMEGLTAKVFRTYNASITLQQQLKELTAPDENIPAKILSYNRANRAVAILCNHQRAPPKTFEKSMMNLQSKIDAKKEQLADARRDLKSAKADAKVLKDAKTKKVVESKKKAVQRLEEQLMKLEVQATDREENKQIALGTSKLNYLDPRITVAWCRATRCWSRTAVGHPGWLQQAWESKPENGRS
In words: Cleavable complex assay (topoisomerase I inhibition). The note with it: S.E. in own column, read-out: IC50, minimum drug concentration that inhibited the cleavable complex formation by 50%. Type of data set: biochemical. The source says:
This relaxation is brought about by breakage of one of the DNA strands in the formation of a covalent topoisomerase I-DNA complex.

For the next data set, the system named is leukemia and tumor. The note with it: Wall 1969; cited from earlier work.
The conditions of data set [2]: background statement; cited from earlier work.
For data set [3] the following is noted: physiological pH, 7.2; Burke et al. 1993; cited from earlier work.
A further data set concerns P388 leukemia. The note with it: Wall 1983; cited from earlier work.
Setting [4] is: at highest active dose, ip, Q04DX02 (days 1 and 5).
[5] abbreviates: at highest active dose, iv, Q04HX02 (hours 1 and 5).
Setting [6] is: ip, Q04DX02 (ip injection on days 1 and 5), intraperitoneal transplants.
The mark [7] stands for this setting: iv, Q04HX02 (iv drug dosing on hours 1 and 5), intraperitoneal transplants.

Counter-ions that a name gives are not always drawn.

For the molecule `CCC1(OC(=O)CN)C(=O)OCc2c1cc1n(c2=O)Cc2cc3c(N)cccc3nc2-1` (racemic) [9-amino-20-glycinyl-(20RS)-CPT.HCl, 9-amino-20-O-glycinyl-(20RS)-CPT·HCl], the figures for the “% T/C = (median survival time of treated/control animals) × 100” value in the data set on L-1210 leukemia (setting [4]) and with L-1210 leukemia (setting [5]) were 132% and 168%, respectively. The highest active dose was found to be 5 mg/kg in the data set on L-1210 leukemia (mouse, in vivo) and 10 mg/kg with L-1210 leukemia (mouse, in vivo, ip). Further, the “KE, log of initial tumor cell population minus log of tumor cell population at the end of treatment” value is given as -1.00 in the data set on L-1210 leukemia (mouse, in vivo, ip) and 1.67 with L-1210 leukemia (mouse, in vivo, iv). Moreover, the active dose range in the data set with L-1210 leukemia (mouse, in vivo, ip) is 10 mg/kg; with L-1210 leukemia (mouse, in vivo, iv) it was 2.5 to 5.0 mg/kg. Also, the cures in the data set with L-1210 leukemia (mouse, in vivo, ip) is given as 0; in the data set with L-1210 leukemia (mouse, in vivo, iv), 1/6. For the same molecule, the “toxic dose (not toxic at dose)” value in data set [1] (ip, Q04DX02 (days 1 and 5)) is “NT^e at 10”; in data set [1] (iv, Q04HX02 (hours 1 and 5)), “NT at 5”.

With `CCC1(O)C(=O)OCc2c1cc1n(c2=O)Cc2cc3cc4c(cc3nc2-1)OCO4` (racemic) [10,11-(methylenedioxy)-(20RS)-CPT, 10,11-methylenedioxy-20(RS)-camptothecin, reference compound], the “% T/C = (median survival time of treated/control animals) × 100” value in the data set on L-1210 leukemia (setting [4]) is given as 325%. Besides, in the data set with L-1210 leukemia (ip, Q04DX02 (days 1 and 5)), the “KE, log of initial tumor cell population minus log of tumor cell population at the end of treatment” value turned out to be 5.97; the active dose range lay within 2 to 4 mg/kg; the cures is recorded as 2/6. This molecule also showed a highest active dose with L-1210 leukemia (setting [6]) of 2 mg/kg. In data set [1] (ip, Q04DX02 (days 1 and 5)), the toxic dose is recorded as 8.0 mg/kg.

Consider `CCC1(OC(=O)CN)C(=O)OCc2c1cc1n(c2=O)Cc2cc3cc4c(cc3nc2-1)OCO4` (racemic) [10,11-MDO-20-O-glycinyl-(20RS)-CPT·HCl], for which, at topoisomerase I, the IC50 was found to be 430 nM. The “% T/C = (median survival time of treated/control animals) × 100” value in the data set with L-1210 leukemia (iv) turned out to be 236%. In the data set on L-1210 leukemia (iv, Q04HX02 (hours 1 and 5)), the “KE, log of initial tumor cell population minus log of tumor cell population at the end of treatment” value turned out to be 5.97; the active dose range lay in the range of 1.25 to 20 mg/kg; the cures was 3/6. In the data set on L-1210 leukemia (setting [7]), this molecule registered a highest active dose of 10 mg/kg. In data set [1] (administered at 20 mg/kg), the toxicity in words result was “non-toxic”. Also, the “greater amount of the ester that can be administered than the parent compound” value in data set [1] (ester vs parent 10,11-methylenedioxy-20(RS)-camptothecin) was 10 fold. For the same molecule, the “toxic dose (not toxic at dose)” value in data set [1] (iv, Q04HX02 (hours 1 and 5)) was “NT at 20”.

For the molecule `CCC1(OC(=O)CN)C(=O)OCc2c1cc1n(c2=O)Cc2cc3cc(N)ccc3nc2-1` (racemic) [10-amino-20-glycinyl-(20RS)-CPT.HCl, 10-amino-20-O-glycinyl-(20RS)-CPT·HCl], the “% T/C = (median survival time of treated/control animals) × 100” value in the data set on L-1210 leukemia (setting [5]) was determined as 225%. Also, in the data set with L-1210 leukemia (iv, Q04HX02 (hours 1 and 5)), the “KE, log of initial tumor cell population minus log of tumor cell population at the end of treatment” value is on record as greater than 5.97; the active dose range fell in the range of 1.25 to 20 mg/kg; the cures is recorded as 0. The highest active dose in the data set on L-1210 leukemia (setting [7]) came out at 20 mg/kg. Besides, the “toxic dose (not toxic at dose)” value in data set [1] (iv, Q04HX02 (hours 1 and 5)) is on record as “NT at 20”.

As for `CCC1(O)C(=O)OCc2c1cc1n(c2=O)Cc2cc3cc(N)ccc3nc2-1` (racemic) [10-amino-(20RS)-CPT, reference compound], the “% T/C = (median survival time of treated/control animals) × 100” value in the data set on L-1210 leukemia (ip) was determined as 365%. In the data set with L-1210 leukemia (ip, Q04DX02 (days 1 and 5)), the “KE, log of initial tumor cell population minus log of tumor cell population at the end of treatment” value is given as 5.97; the active dose range fell in the range of 1.35 to 3.74 mg/kg; the cures is reported as 3/6. The same molecule gave a highest active dose in the data set with L-1210 leukemia (setting [6]) of 3.75 mg/kg. The molecule also registered a toxic dose in data set [1] (ip, Q04DX02 (days 1 and 5)) of 6.25 mg/kg.

As for `CC[C@@]1(O)C(=O)OCc2c1cc1n(c2=O)Cc2cc3c(N)cccc3nc2-1` [9-amino-(20S)-CPT, reference compound], in the data set on L-1210 leukemia (ip, Q04DX02 (days 1 and 5)), the “KE, log of initial tumor cell population minus log of tumor cell population at the end of treatment” value stood at 4.8; the active dose range lay in the range of 5.3 to 12 mg/kg; the cures is 1/6. Moreover, the highest active dose in the data set on L-1210 leukemia (setting [6]) was 12 mg/kg. The “% T/C = (median survival time of treated/control animals) × 100” value in the data set with L-1210 leukemia (mouse, in vivo, ip) came out at 250%. The molecule also gave a toxic dose in data set [1] (ip, Q04DX02 (days 1 and 5)) of 10 mg/kg.

Take `CCC1C(=O)OCc2c1cc1n(c2=O)Cc2cc3ccccc3nc2-1` (centres unmarked) [20-desoxy-CPT]: the “antileukemia and antitumor activity” value in the data set with leukemia and tumor was “inactive”.

As for `CCC1(OC(C)=O)C(=O)OCc2c1cc1n(c2=O)Cc2cc3ccccc3nc2-1` (stereo not drawn) [CPT-20α-acetate], the “antileukemia and antitumor activity” value in the data set with leukemia and tumor was “inactive”.

Consider `CC[C@@]1(O)C(=O)OCc2c1cc1n(c2=O)Cc2cc3ccccc3nc2-1` [camptothecin, Camptothecin], for which the water solubility result in data set [2] is “water insoluble”. Moreover, the lactone ring opening entry in data set [3] is “opens to a physiologically inactive open form”. Moreover, the “activity in the P388 leukemia assay” value in the data set with P388 leukemia is “High activity”.

Values taken from patent US5646159A (priority 1994, dated 1997).
